In brackets after ≈: the same amount, converted by molar mass. Read-outs that look alike come from different tables or passages of the source.
Assays:
P. aeruginosa = assay: Antimicrobial screening, zone of inhibition; assay type: cell-based; settings: Table 1; for zone of inhibition at 1000 µg/mL: Pseudomonas aeruginosa, isolated compounds 1 mg/mL, read-out: P. aeruginosa Diameter of Inhibition Zone (mm); for P. aeruginosa %Activity Index: 1 mg/mL, relative to ciprofloxacin
Description: The procedure was performed according to Stylianakis et al.. A comparison of the extract’s zone of inhibition to that of a reference antibiotic’s activity index was determined using the following equation:Activity index = (the inhibition zone of extract/the inhibition zone of the standard) × 100

[1] = Cytotoxic activity (MTT assay), normal cells; assay type: cell-based; settings: human
Description: (§1) The HPLC was performed in the Institute for Plant Biology, TU Braunschweig, using a Young Lin quaternary pump, vacuum degasser, column oven (40 °C), diode array detector (YL9160 PDA), and a Midas Spark Holland autosampler. UV spectra (λ max) were measured in the central laboratory of the Faculty of Pharmaceutical Science at Mansoura University using spectroscopic methanol with an ultraviolet-visible spectrophotometer (Shimadzu 1601 PC, version TCC-240A, Kyoto, Japan). The NMR unit of Mansoura University’s Faculty of Pharmacy obtained nuclear magnetic resonance spectra (^1H-NMR, ^13C-NMR, DEPT-Q, APT, HSQC, and HMBC) using a Bruker DRX 600 NMR spectrometer (600 and 150 MHz for ^1H and ^13C-NMR, respectively) and with the Bruker Corporation Avance III 400 spectrometer, which measures ^1H and ^13C-NMR at 400 and 100 MHz, respectively. The types of solvents that are used are CDCl3, CD3OD, and DMSO-d6. For normal phase chromatography, silica gel G 60–230 mesh (Merck, Darmstadt, Germany) was packed using a wet or dry method in the specified solvent. The purchase of Normal Human lung fibroblast (WI-38), hepatic cancer cell lines (HePG-2), and mammary gland (MCF-7) cell lines from ATCC was made possible by the Holding firm for biological goods and vaccines (VACSERA), which is based in Cairo, Egypt.
(§2) Using the MTT test, the inhibitory effects of substances on cell growth were ascertained using the cell lines compared to normal lung fibroblast cells (WI-38). The selectivity index was calculated via the Selectivity index (SI) equation: SI equals IC50 normal/IC50 cancer.

C. albicans = assay: Antimicrobial screening, zone of inhibition; assay type: cell-based; settings: Table 1; for zone of inhibition at 1000 µg/mL: Candida albicans, isolated compounds 1 mg/mL, read-out: C. Albicans Diameter of Inhibition Zone (mm); for C. Albicans %Activity Index: 1 mg/mL, relative to clotrimazole
Description: (§3) The procedure was performed according to […] et al.. A comparison of the extract's zone of inhibition to that of a reference antibiotic's activity index was determined using the following equation:Activity index = (the inhibition zone of extract/the inhibition zone of the standard) × 100

S. aureus = assay: Antimicrobial screening, zone of inhibition; assay type: cell-based; settings: Table 1; for zone of inhibition at 1000 µg/mL: Staphylococcus aureus, isolated compounds 1 mg/mL, read-out: S. aureus Diameter of Inhibition Zone (mm); for S. aureus %Activity Index: 1 mg/mL, relative to ciprofloxacin
Description: as §3

E. coli = assay: Antimicrobial screening, zone of inhibition; assay type: cell-based; settings: Table 1; for zone of inhibition at 1000 µg/mL: Escherichia coli, isolated compounds 1 mg/mL, read-out: E. coli Diameter of Inhibition Zone (mm); for E. coli %Activity Index: 1 mg/mL, relative to ciprofloxacin
Description: as §3

HepG-2 cancer cell line = assay: Cytotoxic activity (MTT assay); assay type: cell-based; settings: for IC50: Homo sapiens; for Selectivity Index HepG2: IC50 normal (WI-38)/IC50 cancer
Description: as §1, §2

MCF-7 cancer cell line = assay: Cytotoxic activity (MTT assay); assay type: cell-based; settings: for IC50: Homo sapiens; for Selectivity Index MCF-7: IC50 normal (WI-38)/IC50 cancer
Description: as §1, §2

ABTS antioxidant assay = assay type: biochemical; parameters: IC50 in ABTS assay: unit not given beside the values; settings: isolated compounds from lettuce seedcake; unit not given
Description: The experiment was performed in triplicate according to Zaky et al.. The absorbance of control of the resulting green-blue solution (ABTS* radical solution) was recorded at λ max 734 nm.

dermal inflammation = assay: Histopathological assessment of paw skin tissue (carrageenan model); assay type: in vivo, rat; settings: Group 3, ibuprofen 10 mg/kg; 5 h after carrageenan
From the text: Five hours following the carrageenan injection, tissue specimen samples from the paw skin tissue of every group under study were removed for histological examination. Prior to being submerged in paraffin blocks, they were fixed in a 10% formalin solution and stained with hematoxylin-eosin. Using a microtome, paraffin sections with a thickness of 5 µm were cut, and hematoxylin and eosin were frequently applied to the sections. Microscopically, these tissue slices were inspected. Consequently, the sections were examined under a light microscope; on the other hand, photos taken with a digital camera (Canon Power-shot D10) recorded the progression of paw oedema.

GPx = GPx activity in rat paw tissue homogenate (carrageenan model); assay type: in vivo
Description: (§4) The levels of inflammatory mediators (IL-1β, TNF-α, and PGE2) in rat paw tissue homogenate were measured using the following Kits: Rat TNF-α (Tumor Necrosis Factor Alpha) ELISA Kit from Elabscience® Company, Houston, TX, USA, Interleukin 1 Beta (IL-1b) Organism Species: Rattus norvegicus (Rat) from Cloud Clone Crop Company and Rat PGE2 (Prostaglandin E2) ELISA Kit from Fine test® company Hubei, China. In addition, oxidative stress parameters in rat paw tissue homogenate were measured using superoxide dismutase, glutathione peroxidase, and catalase Kits from the Biodiagnostic company, Birmingham, UK.
(§5) Rats were slaughtered, and their paw tissues were gathered and weighed five hours after the carrageenan was administered. The tissues underwent processing after being fixed in 10% formalin. Rat paw tissue was homogenized, and its oxidative stress indices (SOD, CAT, and GPx) as well as the levels of inflammatory mediators (IL-1β, TNF-α, and PGE2) were measured.

CAT = CAT activity in rat paw tissue homogenate (carrageenan model); assay type: in vivo; settings: paw tissue 5 h after carrageenan; ibuprofen 10 mg/kg
Description: as §4, §5

[2] = test system: carrageenan-induced paw oedema; assay: Carrageenan-induced paw oedema; assay type: in vivo; settings: dose 10 mg/kg oral, rat
Description: Adult albino rats 180-220 g of both sexes used in the investigation were acquired from the Mansoura University Faculty of Pharmacy's Animal House. Standard laboratory diet and water were provided, and they were housed in cages maintained at a constant temperature of 22 ± 2 °C. The Animal Care and Use Committee (MU-ACUC) of Mansoura University, Egypt, has approved all procedures involving animals with code number: […] Throughout the experiment, medications and extracts were given orally in doses of 1 mL/100 g of the rat's body weight after being solubilized in carboxymethyl cellulose (CMC) in order to create a suspension formula. In this test, rats were divided into six groups, with each group containing 5 animals. Group-1: […] Group-2: Positive control (carrageenan-induced oedema, Sigma (St. Louis, MO, USA)) without any treatment. […] Group-4: […] extract of Lactuca sativa was administered at a 2 g/kg dose. Group-5: Compound (1) is administered at a dose of 20 mg/kg. Group-6: Compound (1) at a dose of 40 mg/kg. Group-7: Combination of standard and compound (1) at doses of (10 + 20) mg/kg, respectively. […] Using a digital vernier calliper, the swelling of the paw that had been injected with carrageenan was measured prior to injection as well as 1, 2, 3, 4, and 5 h following the treatment's induction. The percentage inhibition of oedema in the test animals treated with the extract compared to the carrageenan control group was used to calculate the anti-inflammatory activity. The formula […] was used to calculate the percentage inhibition of inflammation, where “dt” represents the difference in paw volume in the drug-treated group and “dc” represents the difference in paw volume relative to the control group. Moreover, “I” represents the suppression of inflammation.

SOD = SOD activity in rat paw tissue homogenate (carrageenan model); assay type: in vivo
Description: as §4, §5

[3] = HepG2, read-out: In Vitro Cytotoxicity IC50 (µg/mL) HepG-2
[4] = MCF7, read-out: In Vitro Cytotoxicity IC50 (µg/mL) MCF-7
[5] = paw tissue 5 h after carrageenan, ibuprofen 10 mg/kg

Row | Structure (SMILES) | zone of inhibition at 1000 µg/mL (P. aeruginosa) [mm] | P. aeruginosa %Activity Index (P. aeruginosa) [%] | zone of inhibition at 1000 µg/mL (C. albicans) [mm] | C. Albicans %Activity Index (C. albicans) [%] | zone of inhibition at 1000 µg/mL (S. aureus) [mm] | S. aureus %Activity Index (S. aureus) [%] | zone of inhibition at 1000 µg/mL (E. coli) [mm] | E. coli %Activity Index (E. coli) [%] | IC50 (HepG-2 cancer cell line; [3]) [µg/mL] | Selectivity Index HepG2 (HepG-2 cancer cell line) | IC50 (MCF-7 cancer cell line; [4]) [µg/mL] | Selectivity Index MCF-7 (MCF-7 cancer cell line) | other results
1 | O=c1cc(-c2ccc(O)c(O)c2)oc2cc(O[C@@H]3O[C@H](CO)[C@@H](O)[C@H](O)[C@H]3O)cc(O)c12 [Compound 3, luteolin 7-O-β-D-glucoside] | 11.8 ± 0.25 | 51.5 | 9.87 ± 0.15 | 36.7 | 14.8 ± 0.15 | 61.9 | 8.8 ± 0.15 | 33.8 | 24.8 ± 1.9 (≈ 55.4 µM) | 2 | 17.8 ± 1.3 (≈ 39.7 µM) | 2.8 | IC50 [1]: 49.6 ± 2.7 µg/mL (≈ 111 µM)
2 | O=c1cc(-c2ccc(O)cc2)oc2cc(O[C@@H]3O[C@H](CO)[C@@H](O)[C@H](O)[C@H]3O)cc(O)c12 [Compound 4, apigenin 7-O-β-D-glucoside] | 9.8 ± 0.15 | 42.8 | 5.95 ± 0.07 | 22.1 | 11.9 ± 0.15 | 50 | 6.8 ± 0.15 | 26.1 | 43.4 ± 2.5 (≈ 100 µM) | 1.9 | 39.8 ± 2.2 (≈ 92 µM) | 2.1 | IC50 in ABTS assay (ABTS antioxidant assay): 51.27 ± 0.25; IC50 ([1]; MTT, normal cells, read-out: In Vitro Cytotoxicity IC50 (µg/mL) WI-38): 84.3 ± 4.3 µg/mL (≈ 195 µM)
3 | CCC(CC[C@@H](C)C1CCC2C3CC=C4C[C@@H](O[C@@H]5O[C@H](CO)[C@@H](O)[C@H](O)[C@H]5O)CC[C@]4(C)C3CC[C@@]21C)C(C)C (stereo partly drawn) [Compound 5, β-sitosterol 3-O-β-D-glucoside] | 7.9 ± 0.1 | 34.5 | 4.9 ± 0.1 | 18.2 | 10.8 ± 0.2 | 49.6 | 5.1 ± 0.1 | 19.6 | – | 0.54 | – | 0.66 | IC50 ([1]; WI-38 normal lung fibroblast cells, MTT, normal cells, read-out: In Vitro Cytotoxicity IC50 (µg/mL) WI-38): 34.8 ± 2.1 µg/mL (≈ 60.3 µM); IC50 (HepG-2 cancer cell line; HepG2, MTT, read-out: In Vitro Cytotoxicity IC50 (µg/mL) HepG-2): 63.6 ± 3.4 µg/mL (≈ 110 µM); IC50 (MCF-7 cancer cell line; MCF7, MTT, read-out: In Vitro Cytotoxicity IC50 (µg/mL) MCF-7): 52.8 ± 2.9 µg/mL (≈ 91.5 µM)
4 | COc1cccc2c1C(=O)c1c(O)c3c(c(O)c1C2=O)C[C@@](O)(C(=O)CO)C[C@@H]3O[C@H]1C[C@H](N)[C@H](O)[C@H](C)O1 [Doxorubicin, doxorubicin, reference compound] | – | – | – | – | – | – | – | – | 4.5 ± 0.2 (≈ 8.28 µM) | – | – | – | –
5 | CC(C)Cc1ccc(C(C)C(=O)O)cc1 (stereo not drawn) [Ibuprofen, ibuprofen, reference compound] | – | – | – | – | – | – | – | – | – | – | – | – | Histopathology of paw skin (H&E) (dermal inflammation): mild dermal inflammation; GSH protection (GPx; ibuprofen alone): 78.74%; GPx (U/gm Tissue) (GPx; [5]): 93.35 ± 8.84 U/gm Tissue; CAT (U/gm Tissue) (CAT): 2.20 ± 0.20 U/gm Tissue; % Inhibition (%I) of paw oedema ([2]; 1 h): 15.62%; Increase in Paw Oedema ([2]; 1 h): 0.69 ± 0.16 mL; % Inhibition (%I) of paw oedema ([2]; 2 h): 25.62%; Increase in Paw Oedema ([2]; 2 h): 1.57 ± 0.21 mL; % Inhibition (%I) of paw oedema ([2]; 3 h): 28.5%; Increase in Paw Oedema ([2]; 3 h): 1.82 ± 0.38 mL; % Inhibition (%I) of paw oedema ([2]; 4 h): 62.66%; Increase in Paw Oedema ([2]; 4 h): 1.49 ± 0.47 mL; % Inhibition (%I) of paw oedema ([2]; 5 h): 70.9%; Increase in Paw Oedema ([2]; 5 h): 1.20 ± 0.37 mL; SOD protection (SOD; ibuprofen alone): 75.17%; SOD (U/gm Tissue) (SOD; [5]): 142.1 ± 14.71 U/gm Tissue

Reference: PMC11507441, “Oilseed Cakes: A Promising Source of Antioxidant, and Anti-Inflammatory Agents—Insights from Lactuca sativa” (International Journal of Molecular Sciences, 2024)
